Where a SMILES comes first, the peptide text is derived from it. [ ]: non-standard residue; d: D form. N(1S-Me-propyl)Gly = CC[C@H](C)NCC(=O)O; Nspe = C[C@H](NCC(=O)O)c1ccccc1; Nlys = NCCCCNCC(=O)O

One assay has as its system IL-1β. The assay can be described thus: IL-1β expression in previously LPS-stimulated THP1 macrophages (ELISA). The assay is classed as cell-based, human. As to conditions: 25, 5, 1 μM added after 48 h of 2 ng/mL LPS, additional 24 h. Here is the method: (§1) THP-1 monocytes were differentiated as described above 20. Upon differentiation, these cells were then incubated (48 h) with media containing low-dose (2 ng/mL) LPS as a chronic pro-inflammatory stimulus 21. Following incubation, JPT1a or JPT1 was added for final concentrations of 25, 5, and 1 μM 22, and cells were incubated an additional 24 h. Treatment with 2 ng/mL LPS alone served as a positive control, while treatment with an equivalent volume of buffer diluted into media served as the vehicle. Media was collected for later assessment of cytokines via ELISA as described above 23. Cells were fixed and stained for RAGE, phalloidin (cytoplasmic marker), and DAPI (nuclear marker) 24. Each channel was imaged with a Zeiss LSM 510 META Confocal Scanning Laser Microscope using a plan-neofluar 40×/1.3 oil DIC immersion objective; three of these multi-channel images were obtained from each slide in each experiment. 25 All multi-channel images were converted to TIFF file format via ImageJ64 software for quantitative image analysis using a custom subroutine written in Matlab™ software to obtain the average RAGE expression per volume of cells, and the data generated was assessed for statistical significance using GraphPad Prism 7.0 software 26.
(§2) As shown in FIGS. 4B-4D, THP1 macrophages were treated with low-dose LPS at 2 ng/mL. […]
In general terms: ELISA stands for enzyme-linked immunosorbent assay.

For another assay, the system named is IL-8. The assay can be described thus: IL-8 expression in previously LPS-stimulated THP1 macrophages (ELISA). The assay is classed as cell-based, human. As to conditions: 25, 5, 1 μM added after 48 h of 2 ng/mL LPS, additional 24 h. Here is the method: as §1, §2
Another assay addresses T1, E-cadherin (Homo sapiens, UniProt P12830).
T1 sequence (P12830 155-882): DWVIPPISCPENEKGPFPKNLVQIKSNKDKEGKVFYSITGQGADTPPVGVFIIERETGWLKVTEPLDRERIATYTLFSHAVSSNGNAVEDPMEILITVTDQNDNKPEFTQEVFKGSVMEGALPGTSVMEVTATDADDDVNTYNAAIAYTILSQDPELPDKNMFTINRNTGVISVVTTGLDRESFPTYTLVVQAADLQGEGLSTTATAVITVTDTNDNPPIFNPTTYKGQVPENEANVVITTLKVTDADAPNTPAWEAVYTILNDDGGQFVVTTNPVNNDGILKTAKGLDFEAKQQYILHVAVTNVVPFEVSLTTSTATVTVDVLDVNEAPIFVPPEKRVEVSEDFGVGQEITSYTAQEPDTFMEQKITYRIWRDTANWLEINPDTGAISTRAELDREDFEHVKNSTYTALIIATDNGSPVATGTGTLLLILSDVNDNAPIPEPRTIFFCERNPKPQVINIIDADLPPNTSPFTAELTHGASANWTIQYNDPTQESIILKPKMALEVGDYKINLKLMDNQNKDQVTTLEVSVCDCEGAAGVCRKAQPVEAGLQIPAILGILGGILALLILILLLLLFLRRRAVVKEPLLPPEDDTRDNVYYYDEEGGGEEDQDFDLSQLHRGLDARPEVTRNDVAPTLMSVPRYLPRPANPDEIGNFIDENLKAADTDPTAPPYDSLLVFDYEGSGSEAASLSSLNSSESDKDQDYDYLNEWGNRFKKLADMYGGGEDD
Briefly: E-cadherin binding to JPT1a-coated 96-well plates. As to conditions: plates coated with 500 nM JPT1a; E-cadherin 1 to 500 nM. Here is the method:
As shown in FIGS. 7A-7D, 96-well plates coated with 500 nM JPT1a were treated with concentrations of RAGE (FIG. 7A) or E-cadherin (FIG. 7B) ranging from 1 to 500 nM. Values are reported as the average concentration of bound protein determined from all experiments. Error bars indicate SEM, n=2-5. […] In FIG. 7D, 96-well plates coated with 500 nM JPT1 were treated with concentrations of RAGE ranging from 1 to 350 nM.

The test system of the next assay is IL-6. Briefly: IL-6 expression in previously LPS-stimulated THP1 macrophages (ELISA). The assay is classed as cell-based, human. The note with it: 25, 5, 1 μM added after 48 h of 2 ng/mL LPS, additional 24 h. Here is the method:
as §1, §2

Consider `CC[C@H](C)N(CC(=O)N(CC(=O)N(CC(=O)N(CC(=O)N(CC(=O)N(CC(=O)N(CC(N)=O)[C@@H](C)c1ccccc1)[C@@H](C)c1ccccc1)[C@@H](C)CC)[C@@H](C)c1ccccc1)[C@@H](C)c1ccccc1)[C@@H](C)CC)C(=O)CNCCCCN` [JPT1a] (H-[Nlys][N(1S-Me-propyl)Gly][N(1S-Me-propyl)Gly][Nspe][Nspe][N(1S-Me-propyl)Gly][Nspe][Nspe]-NH2), for which the “IL-1β production of previously stimulated macrophages” value in the assay on IL-1β is recorded as “does not affect cytokine production”. Further, the “IL-8 production of previously stimulated macrophages” value in the assay with IL-8 was “does not affect cytokine production”. Besides, at E-cadherin, the “binding to E-cadherin” value is “absence of binding”. Further, the “IL-6 production of previously stimulated macrophages” value in the assay with IL-6 is reported as “does not affect cytokine production”.

The record behind these values is patent US11197908B2, “Peptoids and methods for attenuating inflammatory response” (THE BOARD OF TRUSTEES OF THE UNIVERSITY OF ARKANSAS, priority 2018, dated 2021).
